Columns and labels:
rats = experiment: Open field test after MK-801 administration in rats (MK-801-induced hyperlocomotion); assay type: in vivo; settings: MK-801 0.3 mg/kg ip
Experimental: Figure 4 The effect of JJGW08 and clozapine on MK-801-induced hyperlocomotion in rats. After the habituation period (30 min, 24 h before the test), locomotor activity was measured individually for each animal in the special apparatus. The walked distance (cm) was monitored at 10-min intervals for 30 min, using a computerized system that tracked the animals’ movement and behavior. JJGW08 and clozapine were administered intraperitoneally (ip) 30 or 60 min before the test, respectively, while MK-801 (0.3 mg/kg) was administered ip 15 min before the start of the experiment. The control group received 0.9% NaCl solution (ip) (or 1% Tween (ip) for clozapine) and MK-801 (0.3 mg/kg, ip). Values are expressed as mean ± SD, n = 7–8 rats per group. Statistical analysis: one-way ANOVA (Newman–Keuls post hoc) * p < 0.05, ** p < 0.01, *** p < 0.001.
The experiment was evaluated according to the method described earlier. It was performed in a soundproof chamber with a 30-min habituation period 24 h before the procedure. The open field apparatus consisted of four black, octagonal, stainless steel arenas (diameter: 80 cm) with 30 cm high walls. Each arena was divided into a peripheral and central sector. The peripheral sector was defined as the region within 20 cm from the walls. The approximate light intensity was 15 lx in the central point of the arena and 4 lx close to its walls.
Individual rats were placed in the central part of the open field and allowed to explore the whole arena for 30 min under dim light (approximately 10 lx) and continuous white noise (65 dB). Forward locomotion (cm/30 min) was registered in 10-min intervals for 30 min and analyzed with the aid of a computerized video tracking system (Videomot, TSE, Bad Homburg, Germany). The arenas were cleaned between tests with 20% (v/v) alcohol and allowed to dry.
The tested compound was administered ip 30 min before the experiment at the dose range of 0.3–30.0 mg/kg, and MK-801 (0.3 mg/kg,) was administered ip 15 min before the procedure. […]

[1] = set-up: method as in earlier work; settings: ref 43 (Bubeníková et al.); cited from earlier work
mice [2] = experiment: Marble burying test in mice; assay type: in vivo
Experimental: Figure 3 The effect of JJGW08 and aripiprazole on the number of buried marbles by mice. Mice were placed individually in cages with a 5 cm bedding layer, where 20 glass balls were placed. The number of buried marbles after 30 min of the test was counted. JJGW08 was administered intraperitoneally (ip) 30 min before the test. The control group received 0.9% NaCl solution (ip) or 1% Tween (ip) for aripiprazole. Values are expressed as means ± SD in the case of one-way ANOVA (aripiprazole) or median with interquartile range in the case of Kruskal–Wallis test (JJGW08), n = 8–10 mice per group. Statistical analysis: one-way ANOVA (Newman–Keuls post hoc), and Kruskal–Wallis test (Dunn post hoc), * p < 0.05, ** p < 0.01, *** p < 0.001.
The test was conducted according to the method described by Broekkamp et al. with minor modifications. Mice were placed individually in plastic cages, identical to their home cages, that contained a layer of bedding and 20 glass balls (1.6 cm in diameter) arranged in a pattern 4 × 5. After 30 min of the experiment, the mice were removed from the cages, and the number of balls buried to at least 2/3 of their size was counted.

human D2 receptor = target: T1, human D2 receptor (Homo sapiens, UniProt P14416); experiment: Functional assay (aequorin, calcium mobilization) in CHO-K1 cells, D2 receptor; assay type: cell-based; set-up: Emax: dose or concentration left out as unconfirmed; settings: CHO-K1, read-out: Antagonist Mode Emax%
T1 construct: host or cells: CHO-K1
T1 sequence (P14416 whole entry): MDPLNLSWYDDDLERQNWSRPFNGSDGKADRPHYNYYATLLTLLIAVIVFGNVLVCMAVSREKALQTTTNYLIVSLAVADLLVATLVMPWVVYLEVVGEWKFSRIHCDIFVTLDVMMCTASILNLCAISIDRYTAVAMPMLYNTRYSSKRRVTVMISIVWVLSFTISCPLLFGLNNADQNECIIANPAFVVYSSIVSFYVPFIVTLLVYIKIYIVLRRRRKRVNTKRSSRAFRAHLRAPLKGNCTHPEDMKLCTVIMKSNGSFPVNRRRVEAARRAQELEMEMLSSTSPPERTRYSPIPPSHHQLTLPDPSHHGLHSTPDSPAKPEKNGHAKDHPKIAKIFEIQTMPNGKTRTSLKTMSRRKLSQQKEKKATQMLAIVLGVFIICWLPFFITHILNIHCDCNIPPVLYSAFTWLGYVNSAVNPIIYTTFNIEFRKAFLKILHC
Experimental: (§3) Tested and reference compounds were dissolved in dimethyl sulfoxide (DMSO) at a concentration of 10 mM. Serial dilutions were prepared in a 96-well microplate in assay buffer, and 8 to 10 concentrations were tested. […] The assay was executed according to the previously described protocol [45]. After thawing, cells were transferred to assay buffer (DMEM/HAM’s F12 with 0.1% protease-free BSA) and centrifuged. The cell pellet was resuspended in assay buffer, and coelenterazine h was added at final concentrations of 5 µM. The cell suspension was incubated at 16 °C (or 21 °C), protected from light with constant agitation for 16 h (or 4 h), and then diluted with assay buffer to the concentration of 100,000 cells/mL (or 250,000 cells/mL). After 1 h of incubation, 50 µL of the cell’s suspension was dispensed using automatic injectors built into the radiometric and luminescence plate counter MicroBeta2 LumiJET (PerkinElmer, Waltham, NA, USA) into white opaque 96-well microplates preloaded with test compounds. Immediate light emission generated following calcium mobilization was recorded for 30 s. In antagonist mode, after 25–30 min of incubation, the reference agonist was added to the above assay mix, and light emission was re-recorded. […] IC50 and EC50 values were calculated.

[3] = target: T2, human serotonin 5-HT1A receptor (Homo sapiens, UniProt P08908); experiment: Functional assay (aequorin, calcium mobilization) in CHO-K1 cells, 5-HT1A receptor; assay type: cell-based; settings: CHO-K1, agonist mode
T2 construct: host or cells: CHO-K1
T2 sequence (P08908 1-422): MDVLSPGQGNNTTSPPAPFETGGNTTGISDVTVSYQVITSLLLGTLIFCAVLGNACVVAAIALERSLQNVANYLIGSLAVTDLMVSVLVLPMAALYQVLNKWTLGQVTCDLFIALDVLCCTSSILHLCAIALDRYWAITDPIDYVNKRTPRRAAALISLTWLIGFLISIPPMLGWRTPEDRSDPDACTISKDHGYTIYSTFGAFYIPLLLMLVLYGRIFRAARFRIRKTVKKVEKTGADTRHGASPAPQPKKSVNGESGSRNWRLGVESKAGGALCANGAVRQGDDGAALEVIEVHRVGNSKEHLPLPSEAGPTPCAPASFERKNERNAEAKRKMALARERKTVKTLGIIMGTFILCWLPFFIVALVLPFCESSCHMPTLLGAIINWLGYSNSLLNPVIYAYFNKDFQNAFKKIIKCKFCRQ
Experimental: as §3

[4] = target: T3, human serotonin 5-HT2A receptor (Homo sapiens, UniProt P28223); assay type: cell-based; settings: 5-HT2A
T3 construct: host or cells: CHO-K1
T3 sequence (P28223 whole entry): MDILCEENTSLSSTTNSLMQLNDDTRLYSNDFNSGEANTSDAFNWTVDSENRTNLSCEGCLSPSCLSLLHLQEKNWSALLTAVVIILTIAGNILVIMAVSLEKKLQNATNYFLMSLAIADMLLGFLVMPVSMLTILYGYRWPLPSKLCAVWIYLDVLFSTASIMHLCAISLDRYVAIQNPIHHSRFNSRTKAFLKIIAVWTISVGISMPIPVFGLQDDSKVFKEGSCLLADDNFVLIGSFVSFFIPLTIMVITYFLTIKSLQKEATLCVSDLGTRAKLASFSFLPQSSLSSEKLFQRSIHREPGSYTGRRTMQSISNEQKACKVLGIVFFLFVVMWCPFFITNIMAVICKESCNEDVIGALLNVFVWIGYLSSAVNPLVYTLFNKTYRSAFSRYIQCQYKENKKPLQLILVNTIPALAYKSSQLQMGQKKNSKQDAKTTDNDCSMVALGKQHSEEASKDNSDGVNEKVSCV
Experimental: as §3

mice [5] = experiment: MK-801-induced hyperlocomotion test in mice; assay type: in vivo; settings: MK-801 0.2 mg/kg ip
Experimental: (§1) Locomotor activity was recorded in actometers separately for each mouse. After 30 min of adaptation, the number of crossings of photo beams was measured during 60 min. […] MK-801 (0.2 mg/kg, ip) was administered 15 min before the experiment, while amphetamine (2.5 mg/kg) was administered subcutaneously (sc) 30 min before the experiment. […] Values are expressed as means ± SD, n = 8–10 mice per group. Statistical analysis: one-way ANOVA (Newman–Keuls post hoc), * p < 0.05, ** p < 0.01, *** p < 0.001.
(§2) The test was performed according to the method described by Carlsson et al.. The mobility of the animals was measured in actometers, i.e., in plastic Opto M3 cages (22 × 12 × 13 cm) connected to a computer with MultiDevice Software v.1.30 (Columbus Instruments, Columbus, OH, USA). The experimental cages were equipped with infrared sources on one side and sensors receiving the emitted rays on the other side of the cage. The crossing of each beam of infrared rays was classified as motor activity. The animals were placed individually in experimental cages immediately after administration of the tested compound, 30 min before the start of the test, to adapt to the new conditions and exclude the occurrence of hyperactivity caused by the change of the environment. Spontaneous locomotor activity was measured every 5 min for 60 min. Mice received two injections: of the tested compound or reference substance (30 min before the test, ip) and of amphetamine (2.5 mg/kg, 30 min before the test, sc) or MK-801 (0.2 mg/kg, 15 min before the test, ip). Control groups received an injection of saline and amphetamine or MK-801, or two injections of saline, respectively. Olanzapine was used as a reference compound.

mice [6] = experiment: Amphetamine-induced hyperlocomotion test in mice; assay type: in vivo; settings: amphetamine 2.5 mg/kg sc
Experimental: as §1, §2

For `CN1CCN(C2=Nc3cc(Cl)ccc3Nc3ccccc32)CC1` [clozapine], the “reduction of MK-801-induced hyperlocomotion in the open field” value (rats; 10 mg/kg ip) is listed as 53%, the “reduction of MK-801-induced hyperlocomotion in the open field” value (rats; 30 mg/kg ip) is listed as 98% and the “effect on MK-801-induced deficits in the prepulse inhibition test (in words)” value [1] is listed as “restored”.

With `O=C1CCc2ccc(OCCCCN3CCN(c4cccc(Cl)c4Cl)CC3)cc2N1` [aripiprazole] the “reduction of the number of buried marbles” value (mice [2]; 1.25 mg/kg ip) was 61%, the “reduction of the number of buried marbles” value (mice [2]; 2.5 mg/kg ip) was 69% and the “reduction of the number of buried marbles” value (mice [2]; 5.0 mg/kg ip) was 93%.

With `CN1CCc2cccc3c2[C@H]1Cc1ccc(O)c(O)c1-3` [Apomorphine, reference compound] the Emax (human D2 receptor) was 0%.

In the case of `COc1ccccc1N1CCN(CCCCN2C(=O)c3ccccc3C2=O)CC1` [NAN-190, reference compound], the Emax [3] is reported as 6%.

With `CC(N)Cc1c[nH]c2ccc(O)cc12` (stereo not drawn) [α-methylserotonin, reference compound] the “Agonist Mode Emax%” value ([4]; agonist mode) was 100%, the “Agonist Mode pEC50 ± Range” value ([4]; agonist mode) was 8.5 ± 0.3 and the “Antagonist Mode Emax%” value ([4]; antagonist mode, 30 nM α-methylserotonin as reference agonist) was 2%.

For `Cc1cc2c(s1)Nc1ccccc1N=C2N1CCN(C)CC1` [Olanzapine], the “reduction of MK-801-induced hyperlocomotion” value (mice [5]; 0.03 mg/kg ip) was 63%, the “reduction of MK-801-induced hyperlocomotion” value (mice [5]; 0.3 mg/kg ip) was 82% and the “reduction of amphetamine-induced hyperlocomotion” value (mice [6]; 0.03 mg/kg ip) was 54%. For the same molecule, the “reduction of amphetamine-induced hyperlocomotion” value (mice [6]; 0.3 mg/kg ip) was 75% and the “effect on MK-801-induced deficits in the prepulse inhibition test (in words)” value [1] was “restored”.

In the case of `Cc1nc2n(c(=O)c1CCN1CCC(c3noc4cc(F)ccc34)CC1)CCCC2` [risperidone], the “effect on MK-801-induced deficits in the prepulse inhibition test (in words)” value [1] is listed as “ineffective”.
